# Experiments:
# healthy adult subjects [1] = test: 002 Study: next-day residual sleepiness (KSS, PVT, DSST) and Waketime Questionnaire; assay type: in vivo, human
# Procedure: All subjects were administered PD assessments, including the Karolinska Sleepiness Scale (KSS), Digit Symbol Substitution Test (DSST), and Psychomotor Vigilance Test (PVT) in order to assess acute sleepiness in the interval between dosing and bedtime, as well as next-day residual sleepiness and the level of alertness and ability to concentrate. In addition, a Waketime Questionnaire was administered daily in order to assess quality of sleep on the previous night.
# PD effects were assessed by evaluating postdose and next-day functioning on the KSS, DSST, and the PVT, and by self-report of sleep quality on the Waketime Questionnaire. The KSS, DSST, and PVT were performed starting Day-1 at 15 minutes before habitual bedtime; on Days 1 to 15 within 15 minutes after habitual waketime, and at 1, 2, 4, 8, and 12 hours after habitual waketime, and on Days 1 to 14 at 15 minutes predose and 15 minutes postdose. 24-hour Holter recordings were started 30 minutes before bedtime on Day-2 and just prior to dosing on Day 14. Extractions from these recordings were used to conduct ECG analyses, including the HPQT analysis. Waketime Questionnaires were administered on Day 1 to Day 19.
# The KSS, PVT, and DSST were administered on each treatment day in the evening predose and postdose to assess the acute effect of compound A on sleepiness. For these timepoints, the daily 15 minutes predose values on the KSS, DSST, and PVT served as a baseline for that day's 15 minutes postdose value (daily baseline). The KSS, PVT, and DSST were also administered throughout the daytime hours subsequent to each dosing evening to assess the effect of compound A on next-day residual sleepiness. For these timepoints, the assessments taken at Day 1, 15 minutes and 1, 2, 4, 8, and 12 hours after habitual waketime served as the baseline for the assessments taken at the corresponding times after habitual waketime on Day 2 to Day 15 (time-matched baseline). Waketime Questionnaires were administered on Day 1 through Day 19 in the morning hours. The predose value on Day 1 was used as the baseline. The difference between placebo and each dose of compound A in change from baseline at each timepoint was calculated along with 95% confidence intervals (CIs). Potential dose-response and time trend were explored as data allowed.
# healthy adult subjects [2] = test: 002 Study: PK-PD exploratory analysis of next-day residual sleepiness; assay type: in vivo, human; conditions: 9-10 hours postdose (1-2 hours after morning awakening), Day 2
# Procedure: For the PK-PD exploratory analysis of next-day residual sleepiness, population PK model-derived compound A plasma concentrations at 8, 9, and 10 hours following administration on the evening of Day 1 were related to change from baseline on the KSS, PVT Lapses, and DSST at 15 minutes, 1 hour, and 2 hours after waketime on the morning of Day 2, respectively. […] Concentrations below 30 ng/mL (which occur at doses below 25 mg) after 9-10 hours postdose, which correspond to the 1-2 hours after morning awakening, were associated with minimal or no change from baseline on the KSS, PVT Lapses, or DSST.
smiles,measurement,setting,value
"Cc1ncc(OC[C@@]2(c3cccc(F)c3)C[C@H]2C(=O)Nc2ccc(F)cn2)c(C)n1 [Compound A, (1R,2 S)-2-(((2,4-dimethylpyrimidin-5-yl)oxy)methyl)-2-(3-fluorophenyl)-N-(5-fluoropyridin-2-yl) cyclopropanecarboxamide]","next day residual sleepiness as measured by KSS, PVT, DSST",healthy adult subjects [1]; 2.5-75 mg once daily for 14 days,dose-related increases in both the magnitude and duration
same,"next-day residual sleepiness vs placebo (KSS, PVT, DSST)","healthy adult subjects [1]; 2.5-mg and 5-mg dose groups, any time, any treatment day",no meaningful difference from placebo
same,next-day residual sleepiness vs placebo (KSS),"healthy adult subjects [1]; 10-mg dose group, within 2 hours after waketime, Day 2 through Day 4",Slight differences from placebo
same,increase in next-day residual sleepiness,"healthy adult subjects [1]; 25-mg dose group, within 2 hours after waketime",more consistent and slightly larger than in the 10-mg dose group
same,"next-day residual sleepiness vs placebo, all assessments",healthy adult subjects [1]; 50-mg and 75-mg dose groups,consistent and relatively large differences from placebo
same,Waketime Questionnaire: changes in nighttime sleep,healthy adult subjects [1]; any dose group,None of the items on the Waketime Questionnaire indicated a systematic pattern of changes in nighttime sleep
same,measures of sleepiness vs placebo,"healthy adult subjects [1]; by 12 hours after waketime, any dose group, any day",no differences from placebo
same,"plasma concentration associated with minimal or no change from baseline on KSS, PVT Lapses, DSST",healthy adult subjects [2],below 30 ng/mL
